Measurements from ChEMBL document CHEMBL1933062, “Synthesis of purine N9-[2-hydroxy-3-O-(phosphonomethoxy)propyl] derivatives and their side-chain modified analogs as potential antimalarial agents” (Bioorg Med Chem, 2012).
Activity calls are given as the source filed them. The rule behind the calls is not given here.

Key:
[1] = biological target: T1, Hypoxanthine-guanine phosphoribosyltransferase (Homo sapiens) (UniProt P00492); assay: Inhibition of human HGPRT at >= 100 uM by spectrophotometric analysis in absence of PPi
T1 sequence (whole entry): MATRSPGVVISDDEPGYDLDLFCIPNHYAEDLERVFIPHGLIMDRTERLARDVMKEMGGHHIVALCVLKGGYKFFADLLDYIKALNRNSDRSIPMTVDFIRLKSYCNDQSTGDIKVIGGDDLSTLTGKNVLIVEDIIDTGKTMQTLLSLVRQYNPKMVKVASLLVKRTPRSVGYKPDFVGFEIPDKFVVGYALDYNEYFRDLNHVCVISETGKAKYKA

[2] = biological target: T1, Hypoxanthine-guanine phosphoribosyltransferase (Homo sapiens); assay: Inhibition of human HGPRT at >= 100 uM by spectrophotometric analysis in presence of 52 uM PPi
Plasmodium falciparum [3] = assay: Inhibition of Plasmodium falciparum HGPRT at >= 100 uM by spectrophotometric analysis in absence of PPi
Plasmodium falciparum [4] = assay: Inhibition of Plasmodium falciparum HGPRT at >= 100 uM by spectrophotometric analysis in presence of 52 uM PPi
Plasmodium vivax [5] = assay: Inhibition of Plasmodium vivax HGPRT at >= 100 uM by spectrophotometric analysis in absence of PPi
Plasmodium vivax [6] = assay: Inhibition of Plasmodium vivax HGPRT at >= 100 uM by spectrophotometric analysis in presence of 52 uM PPi
[7] = biological target: T2, Hypoxanthine-guanine phosphoribosyltransferase (Homo sapiens, UniProt P00492); assay: (§1) Inhibition of human HGPRT by spectrophotometric analysis in absence of PPi
T2 sequence (P00492 whole entry): T1 sequence (whole entry)

[8] = (§2) Inhibition of Plasmodium falciparum HGPRT by spectrophotometric analysis in absence of PPi
[9] = (§3) Inhibition of Plasmodium falciparum HGPRT by spectrophotometric analysis in presence of 52 uM PPi
[10] = (§4) Inhibition of Plasmodium vivax HGPRT by spectrophotometric analysis in absence of PPi
[11] = (§5) Inhibition of Plasmodium vivax HGPRT by spectrophotometric analysis in presence of 52 uM PPi
[12] = Selectivity ratio of Ki for human HGPRT to Ki for Plasmodium falciparum HGPRT
[13] = Selectivity ratio of Ki for human HGPRT to Ki for Plasmodium vivax HGPRT
[14] = biological target: T1, Hypoxanthine-guanine phosphoribosyltransferase (Homo sapiens); assay: as §1
[15] = biological target: T1, Hypoxanthine-guanine phosphoribosyltransferase (Homo sapiens); assay: Inhibition of human HGPRT by spectrophotometric analysis in presence of 52 uM PPi
Plasmodium falciparum [16] = assay: as §2
Plasmodium falciparum [17] = assay: as §3
Plasmodium vivax [18] = assay: as §4
Plasmodium vivax [19] = assay: as §5
[20] = biological target: T1, Hypoxanthine-guanine phosphoribosyltransferase (Homo sapiens); assay: Inhibition of human HGPRT at >= 30 uM by spectrophotometric analysis in presence of 52 uM PPi
Plasmodium falciparum [21] = assay: Inhibition of Plasmodium falciparum HGPRT at >= 30 uM by spectrophotometric analysis in presence of 52 uM PPi
Plasmodium vivax [22] = assay: Inhibition of Plasmodium vivax HGPRT at >= 30 uM by spectrophotometric analysis in presence of 52 uM PPi
[23] = biological target: T1, Hypoxanthine-guanine phosphoribosyltransferase (Homo sapiens); assay: Inhibition of human HGPRT at >= 30 uM by spectrophotometric analysis in absence of PPi

Row | SMILES | Ki [7] [µM] | Ki [8] [µM] | Ki [9] [µM] | Ki [10] [µM] | Ki [11] [µM] | Ratio Ki [12] | Ratio Ki [13] | inhibition [20] | further results
1 | O=C(O)COC(COCP(=O)(O)O)Cn1cnc2c(=O)[nH]cnc21 (stereo not given) |  |  |  |  |  |  |  |  | inhibition [1]: inactive; inhibition [2]: inactive; inhibition (Plasmodium falciparum [3]): inactive; inhibition (Plasmodium falciparum [4]): inactive; inhibition (Plasmodium vivax [5]): inactive; inhibition (Plasmodium vivax [6]): inactive
2 | Nc1nc2c(ncn2CC(O)COCP(=O)(O)O)c(=O)[nH]1 (stereo not given) | 4 | 1.4 | 0.5 | 10 | 2.8 | 2.8 | 0.4 |  | 
3 | O=c1[nH]cnc2c1ncn2/C=C\COCP(=O)(O)O |  |  |  |  |  |  |  |  | inhibition [14]: inactive; inhibition [15]: inactive; inhibition (Plasmodium falciparum [16]): inactive; inhibition (Plasmodium falciparum [17]): inactive; inhibition (Plasmodium vivax [18]): inactive; inhibition (Plasmodium vivax [19]): inactive
4 | Nc1nc2c(ncn2CC(COCP(=O)(O)O)OCC(=O)O)c(=O)[nH]1 (stereo not given) | 5 | 5 |  | 27 |  | 1 | 0.2 | inactive | inhibition (Plasmodium falciparum [21]): inactive; inhibition (Plasmodium vivax [22]): inactive
5 | O=c1[nH]cnc2c1ncn2CC(O)COCP(=O)(O)O (stereo not given) |  | 2 | 0.3 | 5 | 0.9 | > 50 | > 25 | inactive | inhibition [23]: inactive
